Where a SMILES comes first, the peptide text is derived from it. The star is where a group is joined. MeOSuc = COC(=O)CCC(=O)*; CH2Cl = ClC*
Assays:
elastase-like activity = experiment: Elastase-like activity in lysates of KCN-treated U-937 cells (MAAPV substrate); assay type: biochemical, human
PC12 cells = experiment: KCN-induced necrosis of PC12 cells, LDH release; assay type: cell-based, rat; conditions: for % protection at indicated concentration 0.1 nM / % protection at indicated concentration 1 nM / % protection at indicated concentration 10 nM / % protection at indicated concentration 100 nM / % protection at indicated concentration 1 μM / protection of cells at 10 μM: KCN-induced necrosis (Table 2); for inhibition at 0.0001 µM / inhibition at 0.001 µM / inhibition at 0.01 µM / inhibition at 0.1 µM / inhibition at 1 µM: Rattus norvegicus, PC-12, 5 h, KCN, PC12, LDH release (Table 5); for % protection at indicated concentration 0.1 nM / inhibition at 0.0001 µM: 0.1 nM; for inhibition at 0.0001 µM: read-out: % protection at 0.1 nM; for % protection at indicated concentration 1 nM / inhibition at 0.001 µM: 1 nM; for inhibition at 0.001 µM: read-out: % protection at 1 nM; for % protection at indicated concentration 10 nM / inhibition at 0.01 µM: 10 nM; for inhibition at 0.01 µM: read-out: % protection At 10 nM; for inhibition at 0.1 µM: read-out: % protection at 0.1 μM; for inhibition at 1 µM: read-out: % protection at 1 μM
Description: The rat pheochromocytoma PC12 cell line was propagated in DMEM medium (Beit Haemek, Israel), supplemented with 5% heat-inactivated calf serum, 10% heat-inactivated horse serum, 2 mM L-glutamine, 100 U/ml penicillin and 100 μg/ml streptomycin. PC12 cells in logarithmic phase were seeded at a concentration of 1.2×10^5/well in 96-well plates and incubated overnight.
Thereafter, the cells were washed twice and maintained in RPMI-1640 (U-937cells) and DMEM (PC-12 cells) glucose-free medium, supplemented with 2 mM pyruvate and 10% dialyzed FCS for one hour. Then cells were treated with or without KCN (Merck, Germany) at the indicated concentrations for 7 hours (U-937 cells), or for 5 hours (PC12 cells).
Elastase inhibitors II (MeOSuc-AAPA-CMK) and elastase inhibitor III (MeOSuc-AAPV-CMK) were purchased from Calbiochem-Novabiochem, USA. Compound Gly-Phe diazomethylketone was purchased from MP Biomedicals, USA. All the compounds disclosed in Table 1 hereinabove were purchased from ChemDiv, San Diego, CA. The compounds were dissolved in DMSO and were administered 30 min before addition of the cell death inducer. The final concentration of DMSO, added to all samples, was 0.1%, which had no effect by itself siRNA and cell transfection
The amount of LDH released from lysed cells is a sensitive measure of cell death. Necrotic cell death was measured in 96-well plates using Promega CytoTox 96 LDH assay kit. LDH content from the cells lysed in 0.1% Triton X-100 for 10 min was used as an index of total LDH. The LDH released in culture medium was used as an index of necrotic cell death and the percentage from total LDH was calculated. The protection by the inhibitor was calculated based on comparing percentage of LDH release in the presence and in the absence of the inhibitor. The inhibitors were also added to totals, blanks and controls. Absorbance at 490 nm was measured by ELISA reader (BioTec).
These compounds were tested for their ability to inhibit necrosis induced by KCN in PC12 cells. The necrotic mode of cell death in this system was validated as previously described. PC12 cells were challenged with KCN as described above. The protective results of the compounds against KCN-induced necrosis assessed using LDH release method are shown below in Table 5. The IC50 values of these inhibitors is in the range of tens to single nanomolar.

[1] = test system: C57BL/6J mice, closed head trauma; experiment: Closed head injury (traumatic brain injury) in mice; assay type: in vivo, mouse
Description: The closed head injury method was used to determine the effect of the elastase inhibitor on the development of brain necrosis and on the neurological status assessed using the neurological severity score (NSS). NSS test was performed 1 hour after trauma. During NSS test, various reflexes, ability to move, beam balance, beam walk and other behavior parameters like seeking and exiting from a cycle were monitored. Development of necrosis was measured by assessing necrotic space in brain slices stained with 2,3,5-triphenyl-2H-tetrazolium chloride (TTC).
C57BL/6J mice weighing 40+4 g (mean±SD) were used in the study. A weight-drop device was used to deliver a shock to the scull resulting in a controlled cerebral injury. Impact was delivered by a silicone-coated 5 mm metal tip extruding from a platform that falls down a frame. This model of cranial injury has been used in previous studies [Feldman Z et al., J Neurosurg (1995) 83:1060-1066; Shapira Y et al., J Neurosurg Anesthesiol (1995) 7:17-25].). All animal procedures and care techniques were approved by the Ben-Gurion University of the Negev Committee for the Ethical Care and Use of Animals in Research.
Mice were prepared for surgery by anesthetization with isoflurane and allowed to breathe spontaneously. Maintenance of adequate anesthesia for the experimental procedure was confirmed by loss of corneal reflexes. Once the corneal reflexes were abolished, a midline scalp incision was made and the scalp and underlying muscles were moved laterally. Closed head trauma (CHT) was delivered to the skull over the frontal portion of the left cerebral hemisphere. 1 minute after the trauma 100 μg of elastase inhibitor II or III in its vehicle (DMSO solution), were injected intracerebraspinaly by direct delivery into the cisterna magna. The vehicle itself was previously found to have no effect.
In addition to the wild type C57BL/6J mice, neutrophil elastase knockout mice strain B6.129X1-Elane were also examined. All procedures were approved by the Ethics Committee of Ben-Gurion University of Negev.

With CCOC(=O)[C@H]1O[C@@H]1C(=O)N[C@@H](CC(C)C)C(=O)NCCC(C)C [E-64d] the “effect on elastase-like proteolytic activity” value (elastase-like activity; lysates after 10 mM KCN 30 min, data not shown) was “no effect”.
With CCOC(=O)CN1C(=O)c2ccccc2S1(=O)=O [5149-0030, Ethyl-2,3-dihydro-3-oxo-1,2-benzisothiazole-2-acetate-1,1-dioxide] the “% protection at indicated concentration 0.1 nM” value (PC12 cells) was 19%, the “% protection at indicated concentration 1 nM” value (PC12 cells) was 25% and the “% protection at indicated concentration 10 nM” value (PC12 cells) was 35%. The “% protection at indicated concentration 100 nM” value (PC12 cells) was 68%, the “% protection at indicated concentration 1 μM” value (PC12 cells) was 80% and the inhibition at 0.0001 µM (PC12 cells) was 19%. The inhibition at 0.001 µM (PC12 cells) was 25%, the inhibition at 0.01 µM (PC12 cells) was 35% and the inhibition at 0.1 µM (PC12 cells) was 68%. It also gave an inhibition at 1 µM (PC12 cells) of 80%.
For O=C(c1ccccc1Br)N1CCN=C1N1CCCCC1 [M059-0193, (2-bromophenyl)-[2-(1-piperidyl)-4,5-dihydroimidazol-1-yl] methanone], the “protection of cells at 10 μM” value (PC12 cells) was 10 μM confers protection 58% of cells.
In the case of COC(=O)CCC(=O)N[C@@H](C)C(=O)N[C@@H](C)C(=O)N1CCC[C@H]1C(=O)N[C@H](C(=O)CCl)C(C)C [EI III, MeOSuc-AAPV-CMK] (MeOSuc-AAPV-CH2Cl), the “KCN-induced necrotic cell death assessed by LDH release” value (PC12 cells; PC12, KCN 5 hours, FIGS. 6, 7A-B) is reported as “inhibited in a dose dependent manner”, the “inhibition of necrosis induced by KCN at high concentrations” value (PC12 cells; up to 300 μM) is reported as “significantly inhibited necrosis” and the “effect of inhibitor by itself on PC-12 cells” value (PC12 cells; up to 300 μM, without KCN) is reported as “inactive by themselves”. For the same compound, the “inhibition of necrosis-induced elastase-like activity” value (elastase-like activity; 100 μM) was “completely inhibited”, the “effect on elastase activity of control cells” value (elastase-like activity; 100 μM, control cells) was “slight effect” and the IC50 (elastase-like activity; lysates after 10 mM KCN 30 min, FIG. 3, read-out: IC50 of inhibition of necrosis-induced elastase-like activity) was 2740 nM. For the same compound, the “induction of elastase-like enzymatic activity in intact cells” value (elastase-like activity; treatment of intact cells) was “abrogated the induction”, the “neurological severity score (NSS)” value ([1]; 100 μg into cisterna magna 1 min after trauma, 1 hour post injury) was “significantly reduce neurological damage” and the “space of necrotic tissue, TTC staining” value ([1]; 100 μg into cisterna magna, untreated traumatized 50%) was 25 % of the damaged hemisphere.
Cc1ccnc(Nc2nc(-c3cc(C)c(C)cc3C)cs2)c1 [M008-0111, N-(4-methylpyridin-2-yl)-4-(2,4,5-trimethylphenyl)thiazol-2-amine] was tested, and the “% protection at indicated concentration 0.1 nM” value (PC12 cells) was 29%, the “% protection at indicated concentration 1 nM” value (PC12 cells) was 36% and the “% protection at indicated concentration 10 nM” value (PC12 cells) was 38%. For the same compound, the “% protection at indicated concentration 100 nM” value (PC12 cells) was 46%, the “% protection at indicated concentration 1 μM” value (PC12 cells) was 90% and the inhibition at 0.0001 µM (PC12 cells) was 29%. The inhibition at 0.001 µM (PC12 cells) was 36%, the inhibition at 0.01 µM (PC12 cells) was 38% and the inhibition at 0.1 µM (PC12 cells) was 46%. It also gave an inhibition at 1 µM (PC12 cells) of 90%.
CCn1c2ccccc2c2nnc(NCc3ccccn3)nc21 [E205-0066, 5-ethyl-N-(pyridin-2-ylmethyl)-5H-[1,2,4]triazino[5,6-b]indol-3-amine] gave an inhibition at 0.01 µM (PC12 cells) of 18%, an inhibition at 0.1 µM (PC12 cells) of 32% and an inhibition at 1 µM (PC12 cells) of 58%.
Compound Cn1c(=O)[nH]c(=O)c2[nH]c(N3CCCCC3)nc21 [D226-0031, 3-methyl-8-(piperidin-1-yl)-1H-purine-2,6(3H,7H)-dione] has an inhibition at 0.0001 µM (PC12 cells) of 29%, an inhibition at 0.001 µM (PC12 cells) of 26% and an inhibition at 0.01 µM (PC12 cells) of 43%. The inhibition at 0.1 µM (PC12 cells) was 37% and the inhibition at 1 µM (PC12 cells) was 65%.
O=c1oc(-c2ccco2)nc2sc3c(c12)CCCC3 [4789-3852, 2-(furan-2-yl)-5,6,7,8-tetrahydro-4H-benzo[4,5]thieno[2,3-d][1,3]oxazin-4-one] was tested, and the inhibition at 0.0001 µM (PC12 cells) was 18%, the inhibition at 0.001 µM (PC12 cells) was 25% and the inhibition at 0.01 µM (PC12 cells) was 55%. The inhibition at 0.1 µM (PC12 cells) was 61% and the inhibition at 1 µM (PC12 cells) was 81%.
For O=C(N1CCN(c2nnc3ccc(Cl)cn23)CC1)C1(c2ccccc2)CC1 [T404-2346, (4-(6-chloro-[1,2,4]triazolo[4,3-a]pyridin-3-yl)piperazin-1-yl)(1-phenylcyclopropyl)methanone], the inhibition at 0.1 µM (PC12 cells) was 42%.
COc1cc(OC)cc(-c2nc3ccc(Br)cc3c(=O)o2)c1 [3952-1000, 6-bromo-2-(3,5-dimethoxyphenyl)-4H-benzo[d][1,3]oxazin-4-one] was tested, and the “% protection at indicated concentration 0.1 nM” value (PC12 cells) was 35%, the “% protection at indicated concentration 1 nM” value (PC12 cells) was 33% and the “% protection at indicated concentration 10 nM” value (PC12 cells) was 38%. The “% protection at indicated concentration 100 nM” value (PC12 cells) was 35%, the “% protection at indicated concentration 1 μM” value (PC12 cells) was 77% and the inhibition at 0.0001 µM (PC12 cells) was 35%. It also gave an inhibition at 0.001 µM (PC12 cells) of 33%, an inhibition at 0.01 µM (PC12 cells) of 38% and an inhibition at 0.1 µM (PC12 cells) of 35%. The inhibition at 1 µM (PC12 cells) was 77%.
In the case of CC(=O)Nc1nc(SCCC(=O)O)n[nH]1 [L150-1122, 3-((5-acetamido-1H-1,2,4-triazol-3-yl)thio)propanoic acid], the inhibition at 0.0001 µM (PC12 cells) is reported as 22%, the inhibition at 0.001 µM (PC12 cells) is reported as 25% and the inhibition at 0.01 µM (PC12 cells) is reported as 30%. The inhibition at 0.1 µM (PC12 cells) was 44% and the inhibition at 1 µM (PC12 cells) was 68%.
Compound Nc1ncc(S(=O)(=O)Nc2ccc(F)cc2F)cn1 [G830-0845, 2-amino-N-(2,4-difluorophenyl)pyrimidine-5-sulfonamide] has an inhibition at 1 µM (PC12 cells) of 54%.
In the case of CC(=O)Oc1ccc2nc(-c3cccc(Br)c3)oc(=O)c2c1 [4334-1600, 2-(3-bromophenyl)-4-oxo-4H-benzo[d][1,3]oxazin-6-yl acetate], the “% protection at indicated concentration 0.1 nM” value (PC12 cells) is reported as 28%, the “% protection at indicated concentration 1 nM” value (PC12 cells) is reported as 30% and the “% protection at indicated concentration 10 nM” value (PC12 cells) is reported as 28%. For the same compound, the “% protection at indicated concentration 100 nM” value (PC12 cells) was 70%, the “% protection at indicated concentration 1 μM” value (PC12 cells) was 74% and the inhibition at 0.0001 µM (PC12 cells) was 28%. For the same compound, the inhibition at 0.001 µM (PC12 cells) was 30%, the inhibition at 0.01 µM (PC12 cells) was 28% and the inhibition at 0.1 µM (PC12 cells) was 71%. The inhibition at 1 µM (PC12 cells) was 74%.
In the case of CCC(CC)C(=O)N1CCN=C1N1CCCC1 [M059-0053, 2-ethyl-1-(2-(pyrrolidin-1-yl)-4,5-dihydro-1H-imidazol-1-yl)butan-1-one], the inhibition at 1 µM (PC12 cells) is reported as 39%.
With CC(C)C(=O)Nc1ccc(Oc2ccc(NC(=O)C(C)C)cc2)cc1 [Y200-4083, N,N'-(oxybis(4,1-phenylene))bis(2-methylpropanamide)] the “% protection at indicated concentration 0.1 nM” value (PC12 cells) was 11%, the “% protection at indicated concentration 1 nM” value (PC12 cells) was 25% and the “% protection at indicated concentration 10 nM” value (PC12 cells) was 32%. The “% protection at indicated concentration 100 nM” value (PC12 cells) was 49% and the “% protection at indicated concentration 1 μM” value (PC12 cells) was 74%.
In the case of O=C(c1ccccc1F)N1CCN=C1N1CCCCC1 [M059-0216, (2-fluorophenyl)-[2-(1-piperidyl)-4,5-dihydroimidazol-1-yl] methanone], the “protection of cells at 10 μM” value (PC12 cells) is reported as 10 μM confers protection 71% of cells.
